Source: patent US20140045823A1 (Neurocrine Biosciences, Inc., priority 2012, published 2014)

Target: T1, human GPR119 (Homo sapiens, UniProt Q8TDV5)
T1 construct: expression vector for human GPR119 cDNA (Acc. No. NP_848566); expressed in transfected cells; Min-6/hGPR119
T1 sequence (Q8TDV5 1-335): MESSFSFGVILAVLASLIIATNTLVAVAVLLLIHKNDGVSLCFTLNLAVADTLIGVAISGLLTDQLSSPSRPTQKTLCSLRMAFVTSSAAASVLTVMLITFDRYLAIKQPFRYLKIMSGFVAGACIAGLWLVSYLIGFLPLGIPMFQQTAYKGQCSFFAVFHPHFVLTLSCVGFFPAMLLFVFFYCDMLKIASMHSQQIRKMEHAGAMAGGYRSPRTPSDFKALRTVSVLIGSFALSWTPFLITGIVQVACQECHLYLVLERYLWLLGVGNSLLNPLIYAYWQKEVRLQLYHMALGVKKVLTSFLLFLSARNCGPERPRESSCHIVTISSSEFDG
Assay: AlphaScreen cAMP assay in MIN6 cells stably transfected with human GPR119
Assay type: cell-based
Details: Min-6/hGPR119 cells, 45 min at room temperature
Procedure, shortened: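 MIN6 cells stably expressing human GPR119, seeded 10000/well and grown 24 h, were exposed to compound in pH 7.4 buffer with 0.5 mM IBMX, 0.1% BSA and 1% DMSO for 45 min at room temperature. Intracellular cAMP then measured by AlphaScreen.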

SMILES	EC50 [nM]
CC(C)(C)OC(=O)N1CCC(N(C(=O)c2cnc(-n3cnc(CO)c3)nc2)C2CC2)CC1 [Example 94, 4-{Cyclopropyl-[2-(4-hydroxymethyl-imidazol-1-yl)-pyrimidine-5-carbonyl]-amino}-piperidine-1-carboxylic acid tert-butyl ester]	349
Cc1cnn(-c2ncc(C(=O)N(C3CC3)C3CCN(C(=O)OC(C)(C)C)CC3)cn2)c1 [Example 95, 4-{Cyclopropyl-[2-(4-methyl-pyrazol-1-yl)-pyrimidine-5-carbonyl]-amino}-piperidine-1-carboxylic acid tert-butyl ester]	229
Cc1ccn(-c2ncc(C(=O)N(C3CC3)C3CCN(C(=O)OC(C)(C)C)CC3)cn2)n1 [Example 96, 4-{Cyclopropyl-[2-(3-methyl-pyrazol-1-yl)-pyrimidine-5-carbonyl]-amino}-piperidine-1-carboxylic acid tert-butyl ester]	192
CCc1nccn1-c1ncc(C(=O)N(C2CC2)C2CCN(C(=O)OC(C)(C)C)CC2)cn1 [Example 97, 4-{Cyclopropyl-[2-(2-ethyl-imidazol-1-yl)-pyrimidine-5-carbonyl]-amino}-piperidine-1-carboxylic acid tert-butyl ester]	59
Cc1cn(-c2ncc(C(=O)N(C3CC3)C3CCN(C(=O)OC(C)(C)C)CC3)cn2)c(C)n1 [Example 98, 4-{Cyclopropyl-[2-(2,4-dimethyl-imidazol-1-yl)-pyrimidine-5-carbonyl]-amino}-piperidine-1-carboxylic acid tert-butyl ester]	71
Cc1nccn1-c1ncc(C(=O)N(C2CC2)C2CCN(C(=O)OC(C)(C)C)CC2)cn1 [Example 99, 4-{Cyclopropyl-[2-(2-methyl-imidazol-1-yl)-pyimidine-5-carbonyl]-amino}-piperidine-1-carboxylic acid tert-butyl ester]	37
CC(C)(C)OC(=O)N1CCC(N(C(=O)c2cnc(-n3cnnc3)nc2)C2CC2)CC1 [Example 100, 4-[Cyclopropyl-(2-[1,2,4]triazol-4-yl-pyrimidine-5-carbonyl)-amino]-piperidine-1-carboxylic acid tert-butyl ester]	810
CC(C)(CO)CNC(=O)c1ccc(-c2ncc(C(=O)N(C3CC3)C3CCN(C(=O)OC(C)(C)C)CC3)cn2)c(F)c1 [Example 101, 4-(Cyclopropyl-{2-[2-fluoro-4-(3-hydroxy-2,2-dimethyl-propylcarbamoyl)-phenyl]-pyrimidine-5-carbonyl}-amino)-piperidine-1-carboxylic acid tert-butyl ester]	441
CCOCCNC(=O)c1ccc(-c2ncc(C(=O)N(C3CC3)C3CCN(C(=O)OC(C)(C)C)CC3)cn2)cc1F [Example 102, 4-(Cyclopropyl-{2-[4-(2-ethoxy-ethylcarbamoyl)-3-fluoro-phenyl]-pyrimidine-5-carbonyl}-amino)-piperidine-1-carboxylic acid tert-butyl ester]	109
CC(C)(C)OC(=O)N1CCC(N(C(=O)c2cnc(-c3ccc(C(=O)NC4CCCOC4)c(F)c3)nc2)C2CC2)CC1 (stereo not shown) [Example 103, 4-(Cyclopropyl-{2-[3-fluoro-4-(tetrahydro-pyran-3-ylcarbamoyl)-phenyl]-pyrimidine-5-carbonyl}-amino)-piperidine-1-carboxylic acid tert-butyl ester]	168
Cc1noc(C2CCN(C(=O)c3ccc(-c4ncc(C(=O)N(C5CC5)C5CCN(C(=O)OC(C)(C)C)CC5)cn4)cc3F)C2)n1 (stereo not shown) [Example 104, 4-[Cyclopropyl-(2-{3-fluoro-4-[3-(3-methyl-[1,2,4]oxadiazol-5-yl)-pyrrolidine-1-carbonyl]-phenyl}-pyrimidine-5-carbonyl)-amino]-piperidine-1-carboxylic acid tert-butyl ester]	180
CC(C)(C)OC(=O)N1CCC(N(C(=O)c2cnc(-c3ccc(C(=O)NCc4ccccn4)c(F)c3)nc2)C2CC2)CC1 [Example 105, 4-[Cyclopropyl-(2-{3-fluoro-4-[(pyridin-2-ylmethyl)-carbamoyl]-phenyl}-pyrimidine-5-carbonyl)-amino]-piperidine-1-carboxylic acid tert-butyl ester]	144
COCC(C)N(C)C(=O)c1ccc(-c2ncc(C(=O)N(C3CC3)C3CCN(C(=O)OC(C)(C)C)CC3)cn2)cc1F (stereo not shown) [Example 106, 4-[Cyclopropyl-(2-{3-fluoro-4-[(2-methoxy-1-methyl-ethyl)-methyl-carbamoyl]-phenyl}-pyrimidine-5-carbonyl)-amino]-piperidine-1-carboxylic acid tert-butyl ester]	253
COC(C)CN(C)C(=O)c1ccc(-c2ncc(C(=O)N(C3CC3)C3CCN(C(=O)OC(C)(C)C)CC3)cn2)cc1F (stereo not shown) [Example 107, 4-[Cyclopropyl-(2-{3-fluoro-4-[(2-methoxy-propyl)-methyl-carbamoyl]-phenyl}-pyrimidine-5-carbonyl)-amino]-piperidine-1-carboxylic acid tert-butyl ester]	114
COC[C@@H]1CCCN1C(=O)c1ccc(-c2ncc(C(=O)N(C3CC3)C3CCN(C(=O)OC(C)(C)C)CC3)cn2)cc1F [Example 108, 4-(Cyclopropyl-{2-[3-fluoro-4-(2-methoxymethyl-pyrrolidine-1-carbonyl)-phenyl]-pyrimidine-5-carbonyl}-amino)-piperidine-1-carboxylic acid tert-butyl ester]	312
CC(C)(C)OC(=O)N1CCC(N(C(=O)c2cnc(-c3ccc(C(=O)NCC#N)c(F)c3)nc2)C2CC2)CC1 [Example 109, 4-({2-[4-(Cyanomethyl-carbamoyl)-3-fluoro-phenyl]-pyrimidine-5-carbonyl}-cyclopropyl-amino)-piperidine-1-carboxylic acid tert-butyl ester]	85
CC(C)(C)OC(=O)N1CCC(N(C(=O)c2cnc(-c3ccc(C(=O)Nc4cccc(CO)c4)c(F)c3)nc2)C2CC2)CC1 [Example 110, 4-(Cyclopropyl-{2-[3-fluoro-4-(3-hydroxymethyl-phenylcarbamoyl)-phenyl]-pyrimidine-5-carbonyl}-amino)-piperidine-1-carboxylic acid tert-butyl ester]	141
Cc1cnc(CNC(=O)c2ccc(-c3ncc(C(=O)N(C4CC4)C4CCN(C(=O)OC(C)(C)C)CC4)cn3)cc2F)s1 [Example 111, 4-[Cyclopropyl-(2-{3-fluoro-4-[(5-methyl-thiazol-2-ylmethyl)-carbamoyl]-phenyl}-pyrimidine-5-carbonyl)-amino]-piperidine-1-carboxylic acid tert-butyl ester]	64
CC(C)(C)OC(=O)N1CCC(N(C(=O)c2cnc(-c3ccc(C(=O)Nc4ccn[nH]4)c(F)c3)nc2)C2CC2)CC1 [Example 112, 4-(Cyclopropyl-{2-[3-fluoro-4-(2H-pyrazol-3-ylcarbamoyl)-phenyl]-pyrimidine-5-carbonyl}-amino)-piperidine-1-carboxylic acid tert-butyl ester]	220
CN(CCO)C(=O)c1ccc(-c2ncc(C(=O)N(C3CC3)C3CCN(C(=O)OC(C)(C)C)CC3)cn2)cc1F [Example 113, 4-[Cyclopropyl-(2-{3-fluoro-4-[(2-hydroxy-ethyl)-methyl-carbamoyl]-phenyl}-pyrimidine-5-carbonyl)-amino]-piperidine-1-carboxylic acid tert-butyl ester]	597
COC[C@H]1CCCN1C(=O)c1ccc(-c2ncc(C(=O)N(C3CC3)C3CCN(C(=O)OC(C)(C)C)CC3)cn2)cc1F [Example 114, 4-(Cyclopropyl-{2-[3-fluoro-4-(2-methoxymethyl-pyrrolidine-1-carbonyl)-phenyl]-pyrimidine-5-carbonyl}-amino)-piperidine-1-carboxylic acid tert-butyl ester]	378
CN(CC1CCOC1)C(=O)c1ccc(-c2ncc(C(=O)N(C3CC3)C3CCN(C(=O)OC(C)(C)C)CC3)cn2)cc1F (stereo not shown) [Example 115, 4-[Cyclopropyl-(2-{3-fluoro-4-[methyl-(tetrahydro-furan-3-ylmethyl)-carbamoyl]-phenyl}-pyrimidine-5-carbonyl)-amino]-piperidine-1-carboxylic acid tert-butyl ester]	164
CC(C)(C)OC(=O)N1CCC(N(C(=O)c2cnc(-c3ccc(C(=O)Nc4ccc(O)cc4)c(F)c3)nc2)C2CC2)CC1 [Example 116, 4-(Cyclopropyl-{2-[3-fluoro-4-(4-hydroxy-phenylcarbamoyl)-phenyl]-pyrimidine-5-carbonyl}-amino)-piperidine-1-carboxylic acid tert-butyl ester]	445
CC(C)(C)OC(=O)N1CCC(N(C(=O)c2cnc(-c3ccc(C(=O)N4CCCOCC4)c(F)c3)nc2)C2CC2)CC1 [Example 117, 4-(Cyclopropyl-{2-[3-fluoro-4-([1,4]oxazepane-4-carbonyl)-phenyl]-pyrimidine-5-carbonyl}-amino)-piperidine-1-carboxylic acid tert-butyl ester]	275
CO[C@@H]1CCN(C(=O)c2ccc(-c3ncc(C(=O)N(C4CC4)C4CCN(C(=O)OC(C)(C)C)CC4)cn3)cc2F)C1 [Example 118, 4-(Cyclopropyl-{2-[3-fluoro-4-(3-methoxy-pyrrolidine-1-carbonyl)-phenyl]-pyrimidine-5-carbonyl}-amino)-piperidine-1-carboxylic acid tert-butyl ester]	129
